Assay results taken from the NIST ThermoML archive (doi:10.1016/j.tca.2009.12.001).

Assays:
[1] = cn = amount concentration of the nth substance listed, in mol/dm3; conditions: 101 kPa, Liquid; for viscosity: Capillary tube (Ostwald / Ubbelohde) method; for mass density: Pycnometric method
[2] = refractive index (Na D-line) (dimensionless); mn = molality of the nth substance listed, in mol/kg; conditions: 303.15 K, 101 kPa, Liquid, Standard Abbe refractometry
[3] = mn = molality of the nth substance listed, in mol/kg; conditions: 303.15 K, 101 kPa, Liquid, Linear variable-path acoustic interferometer
[4] = wn = mass fraction of the nth substance listed; conditions: 101 kPa, Liquid; for viscosity: Capillary tube (Ostwald / Ubbelohde) method; for speed of sound: Linear variable-path acoustic interferometer; for mass density: Pycnometric method
[5] = refractive index (Na D-line) (dimensionless); wn = mass fraction of the nth substance listed; conditions: 303.15 K, 101 kPa, Liquid, Standard Abbe refractometry
[6] = refractive index (Na D-line) (dimensionless); conditions: 303.15 K; 101.33 kPa; Liquid; Standard Abbe refractometry
[7] = 101 kPa, Liquid; for viscosity: Capillary tube (Ostwald / Ubbelohde) method; for mass density: Pycnometric method

CC(C)[C@@H]1CC[C@@H](C)C[C@H]1O [DL-menthol] + CC(C)O
[1]
Conditions | mass density [kg/m3] | viscosity [mPa·s]
303.15 K, c1 = 0.025 | 777.6 | 1.757
303.15 K, c1 = 0.035 | 777.8 | 1.761
303.15 K, c1 = 0.045 | 778 | 1.766
303.15 K, c1 = 0.055 | 778.3 | 1.771
303.15 K, c1 = 0.075 | 778.8 | 1.781
303.15 K, c1 = 0.085 | 779.1 | 1.785
313.15 K, c1 = 0.0247 | 768.8 | 1.34
313.15 K, c1 = 0.0346 | 769 | 1.344
313.15 K, c1 = 0.0445 | 769.2 | 1.349
313.15 K, c1 = 0.0544 | 769.5 | 1.355
313.15 K, c1 = 0.0742 | 770 | 1.364
313.15 K, c1 = 0.084 | 770.3 | 1.368
323.15 K, c1 = 0.0243 | 756.4 | 1.012
323.15 K, c1 = 0.034 | 756.6 | 1.017
323.15 K, c1 = 0.0438 | 756.8 | 1.022
323.15 K, c1 = 0.0535 | 757.1 | 1.026
323.15 K, c1 = 0.073 | 757.7 | 1.034
323.15 K, c1 = 0.0827 | 758 | 1.039

Conditions | refractive index, [2] | speed of sound, [3] [m/s]
m1 = 0.0323 | 1.3741 | 1135.7
m1 = 0.0453 | 1.3744 | 1138.2
m1 = 0.0584 | 1.3747 | 1141.2
m1 = 0.0715 | 1.375 | 1144.4
m1 = 0.0978 | 1.3755 | 1151.1
m1 = 0.111 | 1.3757 | 1154.2

COC(=O)c1ccccc1O [methyl 2-hydroxybenzoate] + CC(C)O
[4]
Conditions | mass density, 303.15 K [kg/m3] | mass density, 313.15 K [kg/m3] | mass density, 323.15 K [kg/m3] | speed of sound, 303.15 K [m/s] | viscosity, 303.15 K [mPa·s] | viscosity, 313.15 K [mPa·s] | viscosity, 323.15 K [mPa·s]
w1 = 0.05 | 790.9 | 782.8 | 770.3 | 1146.8 | 1.798 | 1.379 | 1.048
w1 = 0.1 | 805.3 | 794.3 | 785.1 | 1170.6 | 1.846 | 1.437 | 1.103
w1 = 0.15 | 822.4 | 812 | 799.3 | 1197.7 | 1.961 | 1.56 | 1.227

[5]
Conditions | refractive index
w1 = 0.05 | 1.3791
w1 = 0.1 | 1.3852
w1 = 0.15 | 1.3912

CC(C)O [propan-2-ol]
Conditions | refractive index
[6] | 1.3736

[7]
Conditions | mass density [kg/m3] | viscosity [mPa·s]
303.15 K | 777.1 | 1.747
313.15 K | 768.4 | 1.33
323.15 K | 756 | 1.003

Conditions | speed of sound [m/s]
[7], 303.15 K, Linear variable-path acoustic interferometer | 1130.6

CC(C)O [propan-2-ol] + COC(=O)c1ccccc1O
[4], w2 = 0
Conditions | mass density [kg/m3] | speed of sound [m/s] | viscosity [mPa·s]
303.15 K | 777.1 | 1130.6 | 1.747
313.15 K | 768.4 | – | 1.33
323.15 K | 756 | – | 1.003

Conditions | refractive index
[5], w2 = 0 | 1.3736
